{"source": "patent US20090062355A1", "about": "“Pharmaceutical Product” (Takeda Pharmaceutical Company Limited, priority 2006, published 2009)", "key": {"[1]": {"system": "mouse macrophage cell line RAW264.7 cells", "assay": "Suppressive action on expression caused by gene induction by LPS stimulation (DNA Chip)", "format": "cell-based", "settings": "100 nM + LPS 10 ng/mL, 6 hr", "procedure": "A suppressive effect of test compound 1 (compound 72 of • Reference Example B66) on the production of various mediators by lipopolysaccharide (LPS), which is a TLR4 agonist, in mouse macrophage cell line RAW264.7 cells was examined. The day before the experiment, the cells were suspended to 5×10^5 cells/mL in RPMI1640 medium supplemented with 10% inactivated fetal bovine serum, plated on a plate and incubated at 37° C., 5% CO2/95% air overnight. The medium was changed to RPMI1640 medium supplemented with 1% inactivated fetal bovine serum, and test compound 1 (final concentration 100 nM) and LPS (final concentration 10 ng/mL) were added. After culture for 6 hr, RNA was prepared by a conventional method and gene was analyzed using DNA Chip (Mu73A, Affimetrix) and Gene Spring ver. 4. The test substance was dissolved in N,N-dimethylformamide to 10 mM and diluted with a medium."}, "[2]": {"system": "mouse macrophage cell line RAW264.7 cells", "assay": "Suppressive action on production of cytokine from LPS stimulated macrophage (BioPlex cytokine assay)", "format": "cell-based", "settings": "100 nM + LPS 10 ng/mL, overnight", "procedure": "A suppressive effect of test compound 1 (compound 72 of Reference Example B66) on the production of various cytokines by lipopolysaccharide (LPS), which is a TLR4 agonist, using mouse macrophage cell line RAW264.7 cells was examined. The day before the experiment, the cells were suspended to 1×10^6 cells/mL in RPMI1640 medium supplemented with 10% inactivated fetal bovine serum, plated on a 96 well microplate at 0.1 mL/well and incubated at 37° C., 5% CO2/95% air overnight. The medium was changed, and test compound 1 (final concentration 100 nM) and LPS (final concentration 10 ng/mL) were added. After overnight culture, the content of cytokine in the culture supernatant was quantified by BioPlex cytokine assay (Bio-Rad). Test compound 1 was dissolved in dimethyl sulfoxide (DMSO) to 10 mM, diluted with RPMI1640 medium supplemented with 1% inactivated fetal bovine serum to 0.1 mM, further diluted with the medium to 10-fold concentration of the final concentration and 1/10 thereof was added."}}}
{"smiles": "CCOC(=O)C1=CCCC[C@H]1S(=O)(=O)Nc1ccc(F)cc1Cl", "note": "[test compound 1, ethyl (6R)-6-[(2-chloro-4-fluoroanilino)sulfonyl]-1-cyclohexene-1-carboxylate]", "values": [{"measurement": "gene variation by LPS stimulation", "setting": "[1]; all genes analyzed that showed variation by LPS", "value": "suppressed almost all the gene variation analyzed"}, {"measurement": "expression of mRNA (fluorescence intensity): MMP-9", "setting": "[1]; control 0, LPS 3571.5", "value": 352.6}, {"measurement": "expression of mRNA (fluorescence intensity): bcl-3", "setting": "[1]; control 0, LPS 7512.6", "value": 158.7}, {"measurement": "expression of mRNA (fluorescence intensity): Guanylate binding protein-2", "setting": "[1]; control 0, LPS 8931.2", "value": 19.4}, {"measurement": "expression of mRNA (fluorescence intensity): RANTES", "setting": "[1]; control 0, LPS 12030.1", "value": 34.8}, {"measurement": "expression of mRNA (fluorescence intensity): IL-1 beta", "setting": "[1]; control 0, LPS 18712.2", "value": 424.9}, {"measurement": "expression of mRNA (fluorescence intensity): Cytokine inducible SH2-containing protein", "setting": "[1]; control 0, LPS 22669.3", "value": 2092.5}, {"measurement": "expression of mRNA (fluorescence intensity): MCP-3", "setting": "[1]; control 2.4, LPS 3159.0", "value": 46.5}, {"measurement": "expression of mRNA (fluorescence intensity): Adenosine A2b receptor", "setting": "[1]; control 2.7, LPS 2092.2", "value": 141.9}, {"measurement": "expression of mRNA (fluorescence intensity): inducible nitric oxide synthase", "setting": "[1]; control 9.3, LPS 1251.6", "value": 125.9}, {"measurement": "expression of mRNA (fluorescence intensity): COX-2", "setting": "[1]; control 24.4, LPS 13981.9", "value": 71.9}, {"measurement": "expression of mRNA (fluorescence intensity): CCR1", "setting": "[1]; control 26.5, LPS 1877.4", "value": 137.9}, {"measurement": "expression of mRNA (fluorescence intensity): IL-6", "setting": "[1]; control 26.7, LPS 5345.6", "value": 0}, {"measurement": "expression of mRNA (fluorescence intensity): IP-10", "setting": "[1]; control 40.1, LPS 12954.7", "value": 30.7}, {"measurement": "expression of mRNA (fluorescence intensity): Histidine decarboxylase", "setting": "[1]; control 44.3, LPS 4472.2", "value": 21.1}, {"measurement": "expression of mRNA (fluorescence intensity): IL-4 receptor", "setting": "[1]; control 84.4, LPS 7015.8", "value": 160.6}, {"measurement": "expression of mRNA (fluorescence intensity): MCP-1", "setting": "[1]; control 115.6, LPS 24184.7", "value": 336.8}, {"measurement": "expression of mRNA (fluorescence intensity): Fas antigen", "setting": "[1]; control 132.7, LPS 2507.5", "value": 202.7}, {"measurement": "expression of mRNA (fluorescence intensity): A20", "setting": "[1]; control 143.9, LPS 1044.3", "value": 204.0}, {"measurement": "expression of mRNA (fluorescence intensity): IL-1 receptor antagonist", "setting": "[1]; control 156.9, LPS 21942.3", "value": 538.2}, {"measurement": "expression of mRNA (fluorescence intensity): P2X4", "setting": "[1]; control 193.0, LPS 1239.3", "value": 227.0}, {"measurement": "expression of mRNA (fluorescence intensity): plasminogen activator inhibitor", "setting": "[1]; control 199.1, LPS 15207.5", "value": 67.5}, {"measurement": "expression of mRNA (fluorescence intensity): TNF receptor associated factor", "setting": "[1]; control 213.6, LPS 2457.3", "value": 311.4}, {"measurement": "expression of mRNA (fluorescence intensity): IL-10", "setting": "[1]; control 221.8, LPS 6617.9", "value": 128.1}, {"measurement": "expression of mRNA (fluorescence intensity): Janus kinase 2", "setting": "[1]; control 228.3, LPS 2175.1", "value": 310.9}, {"measurement": "expression of mRNA (fluorescence intensity): argininosuccinate synthetase", "setting": "[1]; control 376.7, LPS 8623.2", "value": 478.9}, {"measurement": "expression of mRNA (fluorescence intensity): Major histocompatibility complex", "setting": "[1]; control 378.5, LPS 3399.6", "value": 353.0}, {"measurement": "expression of mRNA (fluorescence intensity): serum amyloid A", "setting": "[1]; control 393.1, LPS 24253.2", "value": 1041.0}, {"measurement": "expression of mRNA (fluorescence intensity): Caspase-11", "setting": "[1]; control 436.0, LPS 6975.7", "value": 763.5}, {"measurement": "expression of mRNA (fluorescence intensity): Phosphatase PAC1", "setting": "[1]; control 653.7, LPS 12520.7", "value": 765.9}, {"measurement": "expression of mRNA (fluorescence intensity): G-CSF", "setting": "[1]; control 698.4, LPS 18440.5", "value": 844.9}, {"measurement": "expression of mRNA (fluorescence intensity): IL-18", "setting": "[1]; control 708.7, LPS 4881.4", "value": 429.4}, {"measurement": "expression of mRNA (fluorescence intensity): MIP-2", "setting": "[1]; control 819.2, LPS 12542.9", "value": 3055.0}, {"measurement": "expression of mRNA (fluorescence intensity): TNF receptor", "setting": "[1]; control 906.2, LPS 24864.6", "value": 3467.0}, {"measurement": "expression of mRNA (fluorescence intensity): Fc receptor", "setting": "[1]; control 1244.4, LPS 20683.4", "value": 982.5}, {"measurement": "expression of mRNA (fluorescence intensity): Interferon regulatory factor", "setting": "[1]; control 1491.7, LPS 7554.9", "value": 1356.3}, {"measurement": "expression of mRNA (fluorescence intensity): Galectin-9", "setting": "[1]; control 1904.3, LPS 19639.3", "value": 3639.2}, {"measurement": "expression amount of cytokines: IL1beta", "setting": "[2]; control 0, LPS 97", "value": 2, "unit": "pg/mL"}, {"measurement": "expression amount of cytokines: IL12(p40)", "setting": "[2]; control 3, LPS 18", "value": 4, "unit": "pg/mL"}, {"measurement": "expression amount of cytokines: IL2", "setting": "[2]; control 3, LPS 20", "value": 8, "unit": "pg/mL"}, {"measurement": "expression amount of cytokines: IL3", "setting": "[2]; control 3, LPS 22", "value": 3, "unit": "pg/mL"}, {"measurement": "expression amount of cytokines: IFNgamma", "setting": "[2]; control 9, LPS 31", "value": 8, "unit": "pg/mL"}, {"measurement": "expression amount of cytokines: IL17", "setting": "[2]; control 9, LPS 50", "value": 13, "unit": "pg/mL"}, {"measurement": "expression amount of cytokines: KC", "setting": "[2]; control 10, LPS 79", "value": 22, "unit": "pg/mL"}, {"measurement": "expression amount of cytokines: IL12(p70)", "setting": "[2]; control 12, LPS 48", "value": 13, "unit": "pg/mL"}, {"measurement": "expression amount of cytokines: IL1alpha", "setting": "[2]; control 21, LPS 74", "value": 47, "unit": "pg/mL"}, {"measurement": "expression amount of cytokines: IL10", "setting": "[2]; control 25, LPS 80", "value": 20, "unit": "pg/mL"}, {"measurement": "expression amount of cytokines: RANTES", "setting": "[2]; control 31, LPS 1520", "value": 48, "unit": "pg/mL"}, {"measurement": "expression amount of cytokines: TNFalpha", "setting": "[2]; control 48, LPS 10483", "value": 125, "unit": "pg/mL"}, {"measurement": "expression amount of cytokines: GM-CSF", "setting": "[2]; control 53, LPS 135", "value": 85, "unit": "pg/mL"}, {"measurement": "expression amount of cytokines: IL6", "setting": "[2]; control 82, LPS 233", "value": 152, "unit": "pg/mL"}]}
